Source: PMC9820316, “Novel Arylpiperazine Derivatives of Salicylamide with α1-Adrenolytic Properties Showed Antiarrhythmic and Hypotensive Properties in Rats” (International Journal of Molecular Sciences, 2022)
Marks after values point to notes of the source that are not given here.

Assays:
normotensive rats = test: Influence on blood pressure in the normotensive rats; type: in vivo, rat; settings: for DBP—diastolic blood pressure / SBP—systolic blood pressure: mean ± SD
Procedure: The experiment was performed according to the method described earlier. Normotensive Wistar rats were anesthetized with thiopental (75 mg/kg ip). The right carotid artery was cannulated with a polyethylene tube filled with heparin solution, using a Datamax apparatus (Columbus Instruments, Columbus, OH, USA). After 15 min of the stabilization period, the studied compounds were administered iv, and their effect on systolic and diastolic blood pressure was evaluated (Figure 4A).

[1] = tested on: adrenaline-induced arrhythmia model in rats; test: Therapeutic antiarrhythmic activity in adrenaline-induced arrhythmia; settings: 5 mg/kg iv immediately after adrenaline 20 µg/kg; number of animals with event
[2] = tested on: aconitine-induced arrhythmia model in rats; test: Prophylactic antiarrhythmic activity in aconitine-induced arrhythmia; type: in vivo, rat; settings: 5 mg/kg iv 15 min before aconitine 20 μg/kg; number of animals with event
Procedure: (§1) The animals were anesthetized with thiopental (75 mg/kg ip). Depending on the model, either adrenaline, aconitine, or calcium chloride was used as an arrhythmogen. Adrenaline and aconitine were administered iv at a dose of 20 µg/kg, whereas calcium chloride was administered at a dose of 140 mg/kg to induce heart rhythm disturbances. The tested compounds were injected iv 15 min before the arrhythmogen. Aspel ASCARD apparatus (standard II lead, with the tape speed 50 mm/s and voltage calibration 1 mV = 1 cm) was used for ECG measurements. […] The ED50 was calculated using the method of Litchfield and Wilcoxon.

[3] = tested on: calcium chloride-induced arrhythmia model in rats; test: Prophylactic antiarrhythmic activity in calcium chloride-induced arrhythmia; type: in vivo, rat; settings: 5 mg/kg iv 15 min before calcium chloride 140 mg/kg; number of animals with event
Procedure: as §1

[4] = tested on: pressor response to methoxamine in rats; test: Influence on blood vasopressor response to methoxamine in rats; type: in vivo, rat; settings: 5 mg/kg iv, methoxamine 150 μg/kg before and 5 min after compound
Procedure: The experiment was performed to establish the effect of the studied derivatives on the pressor response to methoxamine (150 µg/kg, iv), according to the methods described previously. Normotensive Wistar rats were anesthetized with thiopental (75 mg/kg ip). The right carotid artery was cannulated with a polyethylene tube filled with heparin solution using a Datamax apparatus (Columbus Instruments, Columbus, OH, USA). After a 15-min stabilization period, the pressor response to methoxamine before (control) and 5 min after the administration of the tested compounds was measured (Figure 4B). The tested compounds were administered at the lowest hypotensive dose.

α1-adrenergic receptors = test: α1-adrenoceptor radioligand binding assay ([3H]-prazosin, rat cortex); settings: rat cortex tissue, mean ± SEM
Procedure: (§2) The α1- and α2-adrenoceptor radioligand binding assays were performed on the rat cerebral cortex using previously described methods. […] The brains were homogenized using the ULTRA-TURRAX homogenizer in 10 mL of an ice-cold 50 mM Tris-HCl buffer (pH 7.6). The homogenates were centrifuged at 20,000× g for 20 min (0–4 °C). Subsequently, the cell pellet was resuspended in the Tris–HCl buffer and centrifuged again. Radioligand binding assays were carried out in plates (MultiScreen/Millipore). The final incubation mixture, with a volume of 300 μL, consisted of 240 μL of the tissue suspension, 30 μL of the radioligand solution, and 30 μL of the buffer containing 7–8 concentrations of the studied compounds. In order to measure the unspecific binding, 10 μM phentolamine (for [^3H]-prazosin) or 10 μM clonidine (for [^3H]-clonidine) were utilized. The incubation was completed by rapid filtration through Whatman GF/C filters using a vacuum manifold (Millipore). The filters were then washed twice with the assay buffer and placed in scintillation vials with a liquid scintillation cocktail. Radioactivity was measured in a WALLAC 1409 DSA liquid scintillation counter (Perkin Elmer, USA). All the assays were performed in duplicates, and the inhibitory constants (Ki) were calculated.

[5] = tested on: adrenaline-induced arrhythmia model in rats; test: Prophylactic antiarrhythmic activity in adrenaline-induced arrhythmia; type: in vivo, rat; settings: for Blocks / Bradycardia / Extrasystoles / Mortality: number of animals with event
Procedure: as §1

α2-adrenergic receptors = test: α2-adrenoceptor radioligand binding assay ([3H]-clonidine, rat cortex); settings: rat cortex tissue, mean ± SEM, n.a. = did not bind at 10^−5 M
Procedure: as §2

[6] = 2.5 mg/kg iv, 0 min (before administration)
[7] = 5.0 mg/kg iv, 0 min (before administration)
[8] = 0.25 mg/kg iv 15 min before adrenaline 20 μg/kg
[9] = 0.5 mg/kg iv 15 min before adrenaline 20 μg/kg
[10] = 1 mg/kg iv 15 min before adrenaline 20 μg/kg

## Cl.NC(=O)c1ccccc1OCCCCCCN1CCN(c2cccc(Cl)c2)CC1 [JJGW03, 2-{6-[4-(3-chlorophenyl)piperazin-1-ylo]hexoxy}benzamide hydrochloride]
Normotensive rats; [6]
  DBP—diastolic blood pressure: 89.3 ± 15.6 mmHg
  SBP—systolic blood pressure: 123.8 ± 17.4 mmHg
Normotensive rats; 2.5 mg/kg iv, 5 min
  DBP—diastolic blood pressure: 83.3 ± 12.8 mmHg
  SBP—systolic blood pressure: 112.5 ± 13.8 mmHg
Normotensive rats; 2.5 mg/kg iv, 10 min
  DBP—diastolic blood pressure: 84.8 ± 14.7 mmHg
  SBP—systolic blood pressure: 109.8 ± 13.5 mmHg
Normotensive rats; 2.5 mg/kg iv, 20 min
  DBP—diastolic blood pressure: 86.0 ± 15.8 mmHg
  SBP—systolic blood pressure: 108.8 ± 15.6 mmHg
Normotensive rats; 2.5 mg/kg iv, 30 min
  DBP—diastolic blood pressure: 85.5 ± 14.7 mmHg
  SBP—systolic blood pressure: 111.8 ± 20.5 mmHg
Normotensive rats; 2.5 mg/kg iv, 40 min
  DBP—diastolic blood pressure: 83.7 ± 15.6 mmHg
  SBP—systolic blood pressure: 111.2 ± 22.3 mmHg
Normotensive rats; 2.5 mg/kg iv, 50 min
  DBP—diastolic blood pressure: 81.2 ± 15.0 mmHg
  SBP—systolic blood pressure: 107.7 ± 19.7 mmHg
Normotensive rats; 2.5 mg/kg iv, 60 min
  DBP—diastolic blood pressure: 79.5 ± 15.4 mmHg
  SBP—systolic blood pressure: 109.2 ± 21.9 mmHg
Normotensive rats; [7]
  DBP—diastolic blood pressure: 101.5 ± 6.1 mmHg
  SBP—systolic blood pressure: 128.5 ± 8.6 mmHg
Normotensive rats; 5 mg/kg iv, 5th min after administration
  decrease of the diastolic blood pressure: 18%
Normotensive rats; 5 mg/kg iv, 10th min after administration
  decrease of the diastolic blood pressure: 20%
Normotensive rats; 5.0 mg/kg iv, 5 min
  DBP—diastolic blood pressure: 83.2 ± 5.0 ^a mmHg
  SBP—systolic blood pressure: 108.0 ± 6.6 ^d mmHg
Normotensive rats; 5.0 mg/kg iv, 10 min
  DBP—diastolic blood pressure: 81.2 ± 4.0 ^a mmHg
  SBP—systolic blood pressure: 104.3 ± 6.3 ^d mmHg
Normotensive rats; 5.0 mg/kg iv, 20 min
  DBP—diastolic blood pressure: 82.0 ± 4.2 mmHg
  SBP—systolic blood pressure: 101.3 ± 4.5 ^d mmHg
Normotensive rats; 5.0 mg/kg iv, 30 min
  DBP—diastolic blood pressure: 83.5 ± 4.3 mmHg
  SBP—systolic blood pressure: 102.3 ± 6.9 ^d mmHg
Normotensive rats; 5.0 mg/kg iv, 40 min
  DBP—diastolic blood pressure: 85.5 ± 5.8 mmHg
  SBP—systolic blood pressure: 104.3 ± 3.9^b mmHg
Normotensive rats; 5.0 mg/kg iv, 50 min
  DBP—diastolic blood pressure: 86.7 ± 6.0 mmHg
  SBP—systolic blood pressure: 106.0 ± 7.9 ^c mmHg
Normotensive rats; 5.0 mg/kg iv, 60 min
  DBP—diastolic blood pressure: 87.5 ± 6.3 mmHg
  SBP—systolic blood pressure: 107.3 ± 6.1 ^b mmHg
Normotensive rats; 5 mg/kg iv, from the 5th to 60th min after administration
  decrease of the systolic blood pressure: 16–21%
[1]
  Blocks: 3/5
  Bradycardia: 1/5
  Mortality: 0/5
[2]
  Blocks: 6/6
  Bradycardia: 6/6
  Extrasystoles: 6/6
  Fibrillations: 6/6
  Mortality: 6/6
[3]
  Blocks: 6/6
  Bradycardia: 6/6
  Extrasystoles: 6/6
  Fibrillations: 4/6
  Mortality: 5/6
[4]
  attenuation of the methoxamine pressor response: 99%
α1-adrenergic receptors
  Adrenergic Receptors—pKi α1: 8.11 ± 0.01
[5]; [8]
  Blocks: 5/5
  Bradycardia: 5/5
  Extrasystoles: 5/5
  Mortality: 4/5
[5]; [9]
  Blocks: 5/5
  Bradycardia: 4/5
  Extrasystoles: 4/5
  Mortality: 4/5
[5]; [10]
  Blocks: 4/5
  Bradycardia: 1/5
  Extrasystoles: 4/5
  Mortality: 0/5
[5]; prophylactic, iv 15 min before adrenaline 20 μg/kg, confidence limits in brackets (Litchfield and Wilcoxon)
  ED50: 0.36 (0.08–1.56) mg/kg
α2-adrenergic receptors
  Adrenergic Receptors—pKi α2: 5.76 ± 0.02
